Test results published in US11395857B2, “Radiolabeled melanocortin 1 receptor-specific alpha-melanocyte-stimulating hormone analogues for imaging or therapy” (PROVINCIAL HEALTH SERVICES AUTHORITY, priority 2018, dated 2022).
Where two headings read alike, the source gives them in different places. Each block holds one molecule with its values, some of them ahead of it.

Experiments:
[1] = In vivo stability in mouse urine at 1 h p.i. (radio-HPLC); design: species or system C57BL/6J mice
Experimental: All animal experiments were conducted in according to the guidelines established by Canadian Council on Animal Care and approved by Animal Ethics Committee of the University of British Columbia. Mice were housed under pathogen-free conditions and kept on twelve hours light and twelve hours dark cycle in the Animal Research Centre, BC Cancer Research Centre, Vancouver, Canada. C57BL/6J mice were anesthetized by inhalation with 2% isoflurane in 2.0 L/min of oxygen, and approximately 4-6 MBq of [^68Ga]Ga-CCZ01099 or [^68Ga]Ga-CCZ01048 was injected intravenously. The mice were allowed to recover and roam freely in their cages. At 1 h post-injection (p.i.), the mice were euthanized by CO2 inhalation and their urine was collected and analyzed on HPLC for metabolite using the conditions described above. In vivo urine stability of [^68Ga]Ga-CCZ01099 and [^68Ga]Ga-CCZ01048 were 34.0±10.4% and ≥98.0% (n≥3), respectively.
The in vivo stability tests in mouse urine were performed as described in Example 1. […] With systematic reduction in the number of N-methylations for the αMSH analogues, a decrease in in vivo stability was observed.

B16F10 mouse melanoma = assay: Biodistribution of 177Lu-labeled αMSH analogues in mice bearing B16F10 mouse melanoma; assay type: in vivo, C57BL/6J mice; conditions: C57BL/6J mice, B16F10 melanoma
Experimental: (§1) The B16-F10 mouse melanoma cells were cultured and inoculated in mice as described in Example 1.
(§2) For biodistribution studies, approximately 1-2 MBq of ^177Lu-labeled αMSH analogues via tail vein under anesthesia. At 1, 4, 24, and 120 h p.i., the mice were euthanized by CO2 inhalation. Organs/tissues were harvested and the radioactivity was measured as described in Example 1.

[2] = as above; assay type: in vivo, C57BL/6J mice; conditions: mouse, iv, total radioactivity, C57BL/6J mice, B16F10 melanoma
Experimental: as §1, §2

Structure (SMILES): CCCC[C@H](NC(=O)CN1CCC(NC(=O)CN2CCN(CC(=O)O)CCN(CC(=O)O)CCN(CC(=O)O)CC2)CC1)C(=O)N[C@H]1CC(=O)NCCCC[C@@H](C(N)=O)NC(=O)[C@H](Cc2c[nH]c3ccccc23)NC(=O)[C@H](CCCNC(=N)N)N(C)C(=O)[C@@H](Cc2ccccc2)NC(=O)[C@H](Cc2c[nH]cn2)NC1=O [[^68Ga]Ga-CCZ01114, metal not drawn]
- In vivo urine stability, intact tracer [1]: 41.4 ± 3.9%

Structure (SMILES): CCCC[C@H](NC(=O)CN1CCC(NC(=O)CN2CCN(CC(=O)O)CCN(CC(=O)O)CCN(CC(=O)O)CC2)CC1)C(=O)N[C@H]1CC(=O)NCCCC[C@@H](C(N)=O)NC(=O)[C@H](Cc2c[nH]c3ccccc23)NC(=O)[C@H](CCCNC(=N)N)NC(=O)[C@@H](Cc2ccccc2)NC(=O)[C@H](Cc2c[nH]cn2)NC1=O [^177Lu-labeled CCZ01048, metal not drawn, reference compound]
- Biodistribution, B16F10 tumour (B16F10 mouse melanoma; 1 h p.i.): 16.3 ± 3.75 % ID/g
- Biodistribution, B16F10 tumour (B16F10 mouse melanoma; 4 h p.i.): 16.7 ± 3.86 % ID/g
- Biodistribution, B16F10 tumour (B16F10 mouse melanoma; 24 h p.i.): 4.39 ± 1.36 % ID/g
- Biodistribution, B16F10 tumour (B16F10 mouse melanoma; 120 h p.i.): 0.41 ± 0.21 % ID/g
- Biodistribution, Blood (B16F10 mouse melanoma; 120 h p.i.): 0.00 ± 0.00 % ID/g
- tissue uptake at 1 h ([2]; male, seminal glands, 1 h p.i., read-out: Biodistribution, Seminal glands): 0.16 ± 0.03 %ID/g
- tissue uptake at 1 h ([2]; male, testes, 1 h p.i., read-out: Biodistribution, Testes): 0.27 ± 0.04 %ID/g
- tissue uptake at 4 h ([2]; male, testes, 4 h p.i., read-out: Biodistribution, Testes): 0.16 ± 0.02 %ID/g
- tissue uptake at 1 h ([2]; adrenal glands, 1 h p.i., read-out: Biodistribution, Adrenal glands): 0.38 ± 0.38 %ID/g
- tissue uptake at 1 h ([2]; bone, 1 h p.i., read-out: Biodistribution, Bone): 0.19 ± 0.01 %ID/g
- tissue uptake at 1 h ([2]; heart, 1 h p.i., read-out: Biodistribution, Heart): 0.18 ± 0.02 %ID/g
- tissue uptake at 1 h ([2]; intestine, 1 h p.i., read-out: Biodistribution, Intestine): 0.33 ± 0.06 %ID/g
- tissue uptake at 4 h ([2]; intestine, 4 h p.i., read-out: Biodistribution, Intestine): 0.49 ± 0.46 %ID/g
- tissue uptake at 24 h ([2]; intestine, 24 h p.i., read-out: Biodistribution, Intestine): 0.27 ± 0.23 %ID/g
- tissue uptake at 1 h ([2]; kidneys, 1 h p.i., read-out: Biodistribution, Kidneys): 5.36 ± 0.32 %ID/g
- tissue uptake at 4 h ([2]; kidneys, 4 h p.i., read-out: Biodistribution, Kidneys): 4.89 ± 1.06 %ID/g
- tissue uptake at 24 h ([2]; kidneys, 24 h p.i., read-out: Biodistribution, Kidneys): 1.78 ± 0.32 %ID/g
- tissue uptake at 120 h ([2]; kidneys, 120 h p.i., read-out: Biodistribution, Kidneys): 0.36 ± 0.09 %ID/g
- tissue uptake at 1 h ([2]; liver, 1 h p.i., read-out: Biodistribution, Liver): 0.54 ± 0.08 %ID/g
- tissue uptake at 4 h ([2]; liver, 4 h p.i., read-out: Biodistribution, Liver): 0.48 ± 0.1 %ID/g
- tissue uptake at 24 h ([2]; liver, 24 h p.i., read-out: Biodistribution, Liver): 0.34 ± 0.05 %ID/g
- tissue uptake at 120 h ([2]; liver, 120 h p.i., read-out: Biodistribution, Liver): 0.16 ± 0.04 %ID/g
- tissue uptake at 1 h ([2]; lungs, 1 h p.i., read-out: Biodistribution, Lungs): 0.73 ± 0.4 %ID/g
- tissue uptake at 1 h ([2]; spleen, 1 h p.i., read-out: Biodistribution, Spleen): 0.29 ± 0.02 %ID/g
- tissue uptake at 4 h ([2]; spleen, 4 h p.i., read-out: Biodistribution, Spleen): 0.22 ± 0.06 %ID/g
- tissue uptake at 1 h ([2]; stomach, 1 h p.i., read-out: Biodistribution, Stomach): 0.59 ± 0.16 %ID/g
- tissue uptake at 4 h ([2]; stomach, 4 h p.i., read-out: Biodistribution, Stomach): 0.56 ± 0.08 %ID/g
- tissue uptake at 1 h ([2]; thyroid, 1 h p.i., read-out: Biodistribution, Thyroid): 2.57 ± 0.62 %ID/g
- tissue uptake at 4 h ([2]; thyroid, 4 h p.i., read-out: Biodistribution, Thyroid): 2.16 ± 0.4 %ID/g
- tissue uptake at 24 h ([2]; thyroid, 24 h p.i., read-out: Biodistribution, Thyroid): 1.24 ± 0.32 %ID/g
- tissue to tissue ratio at 1 h ([2]; tumour/blood, 1 h p.i., read-out: Tumour/blood): 32.4 ± 7.58
- tissue to tissue ratio at 4 h ([2]; tumour/blood, 4 h p.i., read-out: Tumour/blood): 206 ± 73.7
- tissue to tissue ratio at 24 h ([2]; tumour/blood, 24 h p.i., read-out: Tumour/blood): 530 ± 45.1
- tissue to tissue ratio at 120 h ([2]; tumour/blood, 120 h p.i., read-out: Tumour/blood): 233 ± 57.8
- tissue to tissue ratio at 1 h ([2]; tumour/kidney, 1 h p.i., read-out: Tumour/kidney): 3.04 ± 0.63
- tissue to tissue ratio at 4 h ([2]; tumour/kidney, 4 h p.i., read-out: Tumour/kidney): 3.65 ± 1.48
- tissue to tissue ratio at 24 h ([2]; tumour/kidney, 24 h p.i., read-out: Tumour/kidney): 2.25 ± 0.15
- tissue to tissue ratio at 120 h ([2]; tumour/kidney, 120 h p.i., read-out: Tumour/kidney): 1.14 ± 0.65
- tissue to tissue ratio at 1 h ([2]; tumour/muscle, 1 h p.i., read-out: Tumour/muscle): 126 ± 34.1
- tissue to tissue ratio at 4 h ([2]; tumour/muscle, 4 h p.i., read-out: Tumour/muscle): 561 ± 208
- tissue to tissue ratio at 24 h ([2]; tumour/muscle, 24 h p.i., read-out: Tumour/muscle): 239 ± 108
- tissue to tissue ratio at 120 h ([2]; tumour/muscle, 120 h p.i., read-out: Tumour/muscle): 80.9 ± 28.1
- excreta dose per gram or mL at 1 h ([2]; urine, 1 h p.i.): 110 ± 81.9 %ID/g
- excreta dose per gram or mL at 4 h ([2]; urine, 4 h p.i.): 13.8 ± 10.2 %ID/g
- excreta dose per gram or mL at 24 h ([2]; urine, 24 h p.i.): 1.99 ± 1.39 %ID/g
- excreta dose per gram or mL at 120 h ([2]; urine, 120 h p.i.): 0.22 ± 0.05 %ID/g

Structure (SMILES): CCCC[C@H](NC(=O)CN1CCC(NC(=O)CN2CCN(CC(=O)O)CCN(CC(=O)O)CCN(CC(=O)O)CC2)CC1)C(=O)N[C@H]1CC(=O)NCCCC[C@@H](C(N)=O)N(C)C(=O)[C@H](Cc2c[nH]c3ccccc23)N(C)C(=O)[C@H](CCCNC(=N)N)N(C)C(=O)[C@@H](Cc2ccccc2)NC(=O)[C@H](Cc2c[nH]cn2)NC1=O [[^68Ga]Ga-CCZ01103, metal not drawn]
- In vivo urine stability, intact tracer [1]: 92.6 ± 1.6%

The next lines start with the values.

- In vivo urine stability, intact tracer [1]: 82.5 ± 1.8%
Structure (SMILES): CCCC[C@H](NC(=O)CN1CCC(NC(=O)CN2CCN(CC(=O)O)CCN(CC(=O)O)CCN(CC(=O)O)CC2)CC1)C(=O)N[C@H]1CC(=O)NCCCC[C@@H](C(N)=O)N(C)C(=O)[C@H](Cc2c[nH]c3ccccc23)NC(=O)[C@H](CCCNC(=N)N)N(C)C(=O)[C@@H](Cc2ccccc2)NC(=O)[C@H](Cc2c[nH]cn2)NC1=O [[^68Ga]Ga-CCZ01106] [metal not drawn]

- In vivo urine stability, intact tracer [1]: 65.8 ± 2.9%
Structure (SMILES): CCCC[C@H](NC(=O)CN1CCC(NC(=O)CN2CCN(CC(=O)O)CCN(CC(=O)O)CCN(CC(=O)O)CC2)CC1)C(=O)N[C@H]1CC(=O)NCCCC[C@@H](C(N)=O)N(C)C(=O)[C@H](Cc2c[nH]c3ccccc23)N(C)C(=O)[C@H](CCCNC(=N)N)NC(=O)[C@@H](Cc2ccccc2)NC(=O)[C@H](Cc2c[nH]cn2)NC1=O [[^68Ga]Ga-CCZ01105, metal not drawn]
